The text below walks through data of ChEMBL document CHEMBL1201862, “PubChem BioAssay data set” (2004).

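Five concentrations, 48 hours, 96-well plates. GI50 = concentration required for 50% inhibition of growth.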 Active and inactive are the calls of the source. Cut-off read from the data, not from the text of the source: active = GI50 up to about 1.1 µM and inactive = higher. Where only a bound is given, the exact number is not on record here.

Among the test systems are Malme-3M; RXF 393; SK-MEL-2; SNB-19; MOLT-4; HOP-92; SNB-75; U-251; SK-OV-3; IGROV-1; K562; SN12C; HT-29; NCI-H460; RPMI-8226; OVCAR-5; OVCAR-4; COLO 205; MCF7; OVCAR-3.
Common to all, as to assay: NCI anticancer screen, dose series, 48 h

For `N=c1oc2ccc([N+](=O)[O-])cc2cc1C(=O)NCc1ccccc1`, the GI50 in the experiment on Malme-3M was 13.5 µM (inactive); in the experiment with RXF 393 it was 14.7 µM (inactive); in the experiment with SK-MEL-2, 19.3 µM (inactive); with SNB-19, 39 µM (inactive); in the experiment with MOLT-4, 27.9 µM (inactive); in the experiment on HOP-92, 18 µM (inactive). Moreover, the GI50 in the experiment with SNB-75 was 11.5 µM (inactive); with U-251, 28 µM (inactive); in the experiment on SK-OV-3, 39.2 µM (inactive); in the experiment with IGROV-1 it was 12.3 µM (inactive); in the experiment with K562 it was 40 µM (inactive); in the experiment on SN12C, 19.9 µM (inactive). Besides, the GI50 in the experiment with HT-29 is 18.5 µM (inactive); in the experiment with NCI-H460, 41 µM (inactive); in the experiment on RPMI-8226, 38.7 µM (inactive); in the experiment on OVCAR-5, 32.9 µM (inactive); in the experiment with OVCAR-4 it was 24.6 µM (inactive); with COLO 205, 20.6 µM (inactive). In the experiment with MCF7, the GI50 is 35.7 µM (inactive).
With `C=CCc1cc(-c2n[nH]c(=S)[nH]2)ccc1N/N=N/c1ccc(C(=O)O)cc1`, the GI50 in the experiment on Malme-3M was 51.6 µM (inactive); in the experiment on RXF 393, 89.5 µM (inactive); in the experiment on SK-MEL-2, 58.1 µM (inactive); in the experiment with SNB-19 it was > 100 µM (inactive); in the experiment on MOLT-4, 32.4 µM (inactive); with HOP-92, > 100 µM (inactive). Also, the GI50 was > 100 µM (inactive) in the experiment with SNB-75; > 100 µM (inactive) in the experiment on U-251; > 100 µM (inactive) in the experiment on SK-OV-3; 83 µM (inactive) in the experiment on IGROV-1; 56 µM (inactive) with OVCAR-3; 49 µM (inactive) in the experiment on K562. Moreover, the GI50 is > 100 µM (inactive) in the experiment on SN12C; > 100 µM (inactive) in the experiment on HT-29; 38.5 µM (inactive) in the experiment on RPMI-8226; > 100 µM (inactive) in the experiment on OVCAR-5; 44.7 µM (inactive) in the experiment with OVCAR-4; 22.6 µM (inactive) in the experiment with COLO 205. Further, the GI50 with MCF7 was 59.4 µM (inactive).
With `CC1(C)N=C(N)N=C(N)N1CCCCc1ccccc1`, the GI50 was 0.282 µM (active) in the experiment on Malme-3M; 0.422 µM (active) with RXF 393; > 32.9 µM (inactive) in the experiment with SK-MEL-2; 0.733 µM (active) with SNB-19; 0.104 µM (active) in the experiment on MOLT-4; > 62.2 µM (inactive) in the experiment on HOP-92. Further, the GI50 with SNB-75 is 15.4 µM (inactive); in the experiment on U-251, 0.209 µM (active); with IGROV-1, 0.232 µM (active); with OVCAR-3, 0.601 µM (active); in the experiment on K562, < 0.0177 µM (active); in the experiment with SN12C, 0.82 µM (active). The GI50 is 0.124 µM (active) in the experiment on HT-29; 0.151 µM (active) in the experiment with NCI-H460; 2.43 µM (inactive) in the experiment on RPMI-8226; 1.99 µM (inactive) in the experiment on OVCAR-5; 17.3 µM (inactive) in the experiment with OVCAR-4; 0.433 µM (active) with COLO 205. Further, in the experiment on MCF7, the GI50 is 0.838 µM (active).
As to `Cc1cc(C)c(S(=O)(=O)N[C@@H](/C=C(\Br)CO)C(C)C)c(C)c1`, the GI50 in the experiment on Malme-3M was 21.5 µM (inactive); in the experiment on RXF 393, 23.4 µM (inactive); in the experiment with SK-MEL-2, 16.1 µM (inactive); with SNB-19, 56 µM (inactive); in the experiment with MOLT-4, 24.2 µM (inactive); in the experiment with HOP-92, 23.1 µM (inactive). Moreover, the GI50 in the experiment with SNB-75 was 45 µM (inactive); in the experiment with U-251, 25.4 µM (inactive); in the experiment on SK-OV-3, 50.5 µM (inactive); in the experiment on IGROV-1 it was 29.9 µM (inactive); in the experiment on OVCAR-3, 21.2 µM (inactive); in the experiment with K562, 18.5 µM (inactive). Further, the GI50 with SN12C is 16.8 µM (inactive); with HT-29 it was 31 µM (inactive); in the experiment on NCI-H460, 27.7 µM (inactive); in the experiment with RPMI-8226, 21.6 µM (inactive); in the experiment on OVCAR-5 it was 34.3 µM (inactive); in the experiment on COLO 205 it was 15.8 µM (inactive). For the same compound, the GI50 in the experiment on MCF7 was 19.6 µM (inactive).
